One may read the IC50 as the concentration that inhibits the measured activity by half. Usually microsomal CLint stands for the rate of metabolic loss divided by the concentration. High values mean rapid turnover, low ones slow turnover.

The source of these data is US9938269B2, “Inhibitor compounds of phosphodiesterase type 10A” (ABBVIE INC., priority 2011, dated 2018).

One data set deals with T1, PDE10A (human) (Homo sapiens, UniProt Q9Y233).
T1 construct: purchased BPS Bioscience
Description: Measurement of PDE activity (HTRF cAMP kit), human PDE10A. The class given is biochemical. To be noted: PDE enzymatic reaction, substrate 20 nM for PDE10, 60 minutes at 29 C. In a few lines: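 Recombinant human PDE10A (10–250 pM range across PDEs) with 20 nM cAMP substrate in 20 mM Tris-HCl pH 7.5, 10 mM MgCl2, 0.1% BSA, compound pre-mixed with enzyme. Ran 60 min at 29 °C. Remaining cAMP read by HTRF, converted to % of uninhibited activity, and IC50 fitted.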
A general note: Time-resolved FRET reads energy transfer from a long-lived donor to a nearby acceptor.

Data set [1] can be described thus: Determination of the microsomal half-life, rat liver microsomes. To be noted: rat, liver microsomes, pH 7.4. (Liver microsomes are a subcellular fraction often used to study metabolism.)
Data set [2] in a line: Determination of the microsomal half-life, human liver microsomes. To be noted: human, liver microsomes, pH 7.4.

Molecules are shown by their SMILES. Where a name gives a salt, the structure may show the parent alone.

T1 sequence (Q9Y233 whole entry): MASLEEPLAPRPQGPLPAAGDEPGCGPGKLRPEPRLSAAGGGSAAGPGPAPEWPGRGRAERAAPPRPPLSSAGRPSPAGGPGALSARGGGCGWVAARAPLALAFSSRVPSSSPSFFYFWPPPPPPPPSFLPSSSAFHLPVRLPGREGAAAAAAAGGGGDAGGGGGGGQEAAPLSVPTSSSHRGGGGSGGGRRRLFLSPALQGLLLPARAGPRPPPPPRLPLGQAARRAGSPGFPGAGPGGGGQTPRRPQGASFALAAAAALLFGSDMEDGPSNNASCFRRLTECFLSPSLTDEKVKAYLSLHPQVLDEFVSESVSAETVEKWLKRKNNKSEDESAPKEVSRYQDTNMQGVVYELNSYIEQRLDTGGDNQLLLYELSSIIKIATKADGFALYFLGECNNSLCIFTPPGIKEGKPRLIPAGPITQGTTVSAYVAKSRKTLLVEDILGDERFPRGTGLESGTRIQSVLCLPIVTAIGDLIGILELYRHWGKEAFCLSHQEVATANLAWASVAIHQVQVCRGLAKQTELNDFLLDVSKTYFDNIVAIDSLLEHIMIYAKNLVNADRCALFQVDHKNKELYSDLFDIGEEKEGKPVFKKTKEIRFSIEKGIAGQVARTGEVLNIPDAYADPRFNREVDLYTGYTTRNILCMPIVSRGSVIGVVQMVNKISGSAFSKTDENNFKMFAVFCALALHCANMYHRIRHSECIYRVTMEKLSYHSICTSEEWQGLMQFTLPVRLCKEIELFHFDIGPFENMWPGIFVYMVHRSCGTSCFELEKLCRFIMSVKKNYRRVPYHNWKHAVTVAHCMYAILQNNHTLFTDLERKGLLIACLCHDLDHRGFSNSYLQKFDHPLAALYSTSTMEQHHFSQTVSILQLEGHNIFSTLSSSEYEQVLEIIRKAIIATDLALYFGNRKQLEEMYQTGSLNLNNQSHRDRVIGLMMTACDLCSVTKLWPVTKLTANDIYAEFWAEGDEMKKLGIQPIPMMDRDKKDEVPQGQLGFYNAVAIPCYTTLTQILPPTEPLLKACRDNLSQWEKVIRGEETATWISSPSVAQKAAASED

As to `O=C1c2c(cccc2N2CCCOCC2)CN1CCc1ccc2ccccc2n1` [Example 110, 7-[1,4]Oxazepan-4-yl-2-(2-quinolin-2-yl-ethyl)-2,3-dihydro-isoindol-1-one hydrochloride], on PDE10A (human), the 50% inhibitory concentration (IC50) is less than 100 nM. The intrinsic clearance (microsomal CLint) at 0.5 μM in data set [1] is 100 to 220 µL/min/mg; in data set [2] it was more than 220 µL/min/mg.

With `COc1ccc(-c2cncnc2)c2c1C(=O)N(CCc1cn3ccccc3n1)C2` [compound 549, 2-(2-Imidazo[1,2-a]pyridin-2-yl-ethyl)-7-methoxy-4-pyrimidin-5-yl-2,3-dihydro-isoindol-1-one trifluoroacetate], on PDE10A (human), the IC50 is less than 100 nM. Also, the microsomal CLint at 0.5 μM in data set [1] and in data set [2] was less than 100 µL/min/mg throughout.

For `O=C1c2c(cccc2-c2cncnc2)CN1CCc1ccc2sccc2n1` [Example 559, 7-Pyrimidin-5-yl-2-(2-thieno[3,2-b]pyridin-5-ylethyl)isoindolin-1-one], at PDE10A (human), the concentration for half-maximal inhibition (IC50) was less than 100 nM. Further, the microsomal CLint at 0.5 μM in data set [1] was 100 to 220 µL/min/mg; in data set [2], more than 220 µL/min/mg.

As for `Cn1c(CCN2Cc3cccc(-c4cccnc4)c3C2=O)nc2ccccc21` [Example 196, 2-[2-(1-Methyl-1H-benzoimidazol-2-yl)-ethyl]-7-pyridin-3-yl-2,3-dihydro-isoindol-1-one], the half-inhibitory concentration (IC50) against PDE10A (human) is less than 100 nM. The microsomal CLint at 0.5 μM is less than 100 µL/min/mg in data set [1] and more than 220 µL/min/mg in data set [2].

As to `O=C1c2c(N3CCOCC3)ccnc2CN1CCc1ccc2sccc2n1` [compound 491, 4-Morpholino-6-(2-thieno[3,2-b]pyridin-5-ylethyl)-7H-pyrrolo[3,4-b]pyridin-5-one], the IC50 at PDE10A (human) was less than 100 nM. Besides, the microsomal CLint at 0.5 μM in data set [1] and in data set [2] was 100 to 220 µL/min/mg throughout.

With `O=C1c2nccc(-c3cccnc3)c2CN1CCc1ccc2ccccc2n1` [compound 463, 4-Pyridin-3-yl-6-(2-quinolin-2-yl-ethyl)-5,6-dihydro-pyrrolo[3,4-b]pyridin-7-one trifluoroacetate], the IC50 against PDE10A (human) lay within 100 to 200 nM. The microsomal CLint at 0.5 μM in data set [1] and in data set [2] was less than 100 µL/min/mg each time.

On PDE10A (human), `COc1ccc(-c2cn[nH]c2)c2c1CN(CCc1cn3ccccc3n1)C2=O` [Example 372, 2-(2-Imidazo[1,2-a]pyridin-2-yl-ethyl)-4-methoxy-7-(1H-pyrazol-4-yl)-2,3-dihydro-isoindol-1-one] registered a concentration for half-maximal inhibition (IC50) of less than 100 nM. The microsomal CLint at 0.5 μM in data set [1] and in data set [2] was less than 100 µL/min/mg each time.

The compound `O=C1c2c(ccc(F)c2-c2ccncc2)CN1CCc1ccc2ccccc2n1` [Example 14, 6-Fluoro-7-pyridin-4-yl-2-(2-quinolin-2-yl-ethyl)-2,3-dihydro-isoindol-1-one] returned an IC50 on PDE10A (human) of less than 100 nM. The intrinsic metabolic clearance (microsomal CLint) at 0.5 μM in data set [1] and in data set [2] was 100 to 220 µL/min/mg throughout.

Take `O=C1c2c(-c3ccoc3)ccnc2CN1CCc1nc2ccccc2s1` [compound 422, 6-[2-(1,3-Benzothiazol-2-yl)ethyl]-4-(3-furyl)-7H-pyrrolo[3,4-b]pyridin-5-one trifluoroacetate]: on PDE10A (human), the IC50 is less than 100 nM. The figures for the intrinsic clearance (microsomal CLint) at 0.5 μM in data set [1] and in data set [2] were 100 to 220 µL/min/mg and less than 100 µL/min/mg, respectively.

On PDE10A (human), `CCOc1ncc(-c2cccc3c2CN(CCc2ccc4ccccc4n2)C3=O)cn1` [Example 343, 4-(2-Ethoxy-pyrimidin-5-yl)-2-(2-quinolin-2-yl-ethyl)-2,3-dihydro-isoindol-1-one] registered a half-inhibitory concentration (IC50) of 200 to 500 nM. Besides, the microsomal CLint at 0.5 μM in data set [1] is more than 220 µL/min/mg; in data set [2], 100 to 220 µL/min/mg.

Consider `COc1ccc(-c2ccnc3c2CN(CCc2cn4ccccc4n2)C3=O)cc1` [compound 461, 6-(2-Imidazo[1,2-a]pyridin-2-yl-ethyl)-4-(4-methoxy-phenyl)-5,6-dihydro-pyrrolo[3,4-b]pyridin-7-one trifluoroacetate], for which the IC50 on PDE10A (human) fell in the range of 100 to 200 nM. The intrinsic metabolic clearance (microsomal CLint) at 0.5 μM is more than 220 µL/min/mg in data set [1] and less than 100 µL/min/mg in data set [2].

With `Cn1nccc1-c1ccnc2c1CN(CCc1ccc3ccccc3n1)C2=O` [compound 459, 4-(2-Methyl-2H-pyrazol-3-yl)-6-(2-quinolin-2-yl-ethyl)-5,6-dihydro-pyrrolo[3,4-b]pyridin-7-one trifluoroacetate], the IC50 against PDE10A (human) was in the range of 200 to 500 nM. Besides, the microsomal CLint at 0.5 μM in data set [1] and in data set [2] was less than 100 µL/min/mg in each case.

Compound `COc1ccc(-c2cc[nH]n2)c2c1C(=O)N(CCc1nc3ccccc3s1)C2` [compound 400, 2-[2-(1,3-Benzothiazol-2-yl)ethyl]-7-methoxy-4-(1H-pyrazol-3-yl)isoindolin-1-one] yielded an IC50 on PDE10A (human) of less than 100 nM. In addition, the figures for the microsomal CLint at 0.5 μM in data set [1] and in data set [2] were more than 220 µL/min/mg and less than 100 µL/min/mg, respectively.

For the compound `CCc1csc(CCN2Cc3nccc(N4CCOCC4)c3C2=O)n1` [compound 516, 6-[2-(4-Ethylthiazol-2-yl)ethyl]-4-morpholino-7H-pyrrolo[3,4-b]pyridin-5-one], the IC50 on PDE10A (human) is less than 100 nM. For the same compound, the values for the microsomal CLint at 0.5 μM in data set [1] and in data set [2] were 100 to 220 µL/min/mg and less than 100 µL/min/mg, respectively.

`O=C1Cc2ccc(-c3cccc4c3C(=O)N(CCc3ccc5ccccc5n3)C4)cc2N1` [Example 96, 6-[3-Oxo-2-(2-quinolin-2-yl-ethyl)-2,3-dihydro-1H-isoindol-4-yl]-1,3-dihydro-indol-2-one] gave an IC50 on PDE10A (human) of less than 100 nM. For the same compound, the microsomal CLint at 0.5 μM in data set [1] and in data set [2] was 100 to 220 µL/min/mg each time.

`[2H]c1nc2c(c(N3C([2H])([2H])C([2H])([2H])OC([2H])([2H])C3([2H])[2H])c1[2H])C(=O)N(C([2H])([2H])Cc1nc3c([2H])c([2H])c([2H])c([2H])c3c([2H])c1[2H])C2([2H])[2H]` [compound 510, 2,3,7,7-Tetradeuterio-6-[1,1-dideuterio-2-(3,4,5,6,7,8-hexadeuterio-2-quinolyl)ethyl]-4-(2,2,3,3,5,5,6,6-octadeuteriomorpholin-4-yl)pyrrolo[3,4-b]pyridin-5-one] displayed an IC50 on PDE10A (human) of less than 100 nM. Moreover, the values for the microsomal CLint at 0.5 μM in data set [1] and in data set [2] were more than 220 µL/min/mg and 100 to 220 µL/min/mg, respectively.

With `Cc1ccc(CCN2Cc3nccc(N4CCS(=O)(=O)CC4)c3C2=O)nc1` [compound 479, 4-(1,1-Dioxo-1,4-thiazinan-4-yl)-6-[2-(5-methyl-2-pyridyl)ethyl]-7H-pyrrolo[3,4-b]pyridin-5-one trifluoroacetate], the IC50 on PDE10A (human) lay in the range of 200 to 500 nM. Further, the microsomal CLint at 0.5 μM in data set [1] and in data set [2] was less than 100 µL/min/mg in each case.

Consider `O=C1c2c(cccc2-c2ccc3nc[nH]c3c2)CN1CCc1ccc2ccccc2n1` [Example 11, 7-(3H-Benzoimidazol-5-yl)-2-(2-quinolin-2-yl-ethyl)-2,3-dihydro-isoindol-1-one trifluoroacetate], for which, on PDE10A (human), the IC50 is less than 100 nM. Further, the microsomal CLint at 0.5 μM in data set [1] and in data set [2] was less than 100 µL/min/mg in each case.

At PDE10A (human), `O=C1c2c(cccc2-c2ccc3[nH]c(=O)[nH]c3c2)CN1CCc1ccc2ccccc2n1` [Example 9, 5-[3-oxo-2-(2-quinolin-2-yl-ethyl)-2,3-dihydro-1H-isoindol-4-yl]-1,3-dihydro-benzoimidazol-2-one trifluoroacetate] showed a half-inhibitory concentration (IC50) of less than 100 nM. Also, the microsomal CLint at 0.5 μM in data set [1] was 100 to 220 µL/min/mg; in data set [2] it was less than 100 µL/min/mg.

`O=C1c2c(cccc2N2CCN(c3ccncc3)CC2)CN1CCc1ccc2ccccc2n1` [Example 106, 7-(4-Pyridin-4-yl-piperazin-1-yl)-2-(2-quinolin-2-yl-ethyl)-2,3-dihydro-isoindol-1-one]: the IC50 against PDE10A (human) is 200 to 500 nM. The microsomal CLint at 0.5 μM was less than 100 µL/min/mg in data set [1] and 100 to 220 µL/min/mg in data set [2].

`O=C1c2c(cccc2N2CCOCC2)CN1CCc1cnc2ccccc2n1` [compound 482, 7-Morpholino-2-(2-quinoxalin-2-ylethyl)isoindolin-1-one] yielded an IC50 against PDE10A (human) of 100 to 200 nM. Moreover, the microsomal CLint at 0.5 μM in data set [1] and in data set [2] was less than 100 µL/min/mg throughout.

As to `O=C1c2c(-c3ccnnc3)ccnc2CN1CCc1ccc2ccccc2n1` [Example 338, 4-Pyridazin-4-yl-6-(2-quinolin-2-yl-ethyl)-6,7-dihydro-pyrrolo[3,4-b]pyridin-5-one], on PDE10A (human), the IC50 is less than 100 nM. The microsomal CLint at 0.5 μM in data set [1] and in data set [2] was less than 100 µL/min/mg in each case.

`Cc1cccn2cc(CCN3Cc4nccc(-c5ccncc5)c4C3=O)nc12` [compound 496, 6-[2-(8-Methylimidazo[1,2-a]pyridin-2-yl)ethyl]-4-(4-pyridyl)-7H-pyrrolo[3,4-b]pyridin-5-one trifluoroacetate] had an IC50 against PDE10A (human) of less than 100 nM. Besides, the intrinsic clearance (microsomal CLint) at 0.5 μM in data set [1] and in data set [2] was less than 100 µL/min/mg throughout.

`Cc1cccnc1CCN1Cc2nccc(N3CCOCC3)c2C1=O` [compound 522, 6-[2-(3-Methyl-2-pyridyl)ethyl]-4-morpholino-7H-pyrrolo[3,4-b]pyridin-5-one] yielded an IC50 on PDE10A (human) of 100 to 200 nM. The microsomal CLint at 0.5 μM in data set [1] and in data set [2] was less than 100 µL/min/mg throughout.

`Cc1ccc2c(c1)nc(CCN1Cc3nccc(NC4COC4)c3C1=O)n2C` [compound 416, 6-[2-(1,5-Dimethyl-1H-benzoimidazol-2-yl)-ethyl]-4-(oxetan-3-ylamino)-6,7-dihydro-pyrrolo[3,4-b]pyridin-5-one] registered an IC50 on PDE10A (human) of less than 100 nM. For the same compound, the microsomal CLint at 0.5 μM in data set [1] and in data set [2] was less than 100 µL/min/mg each time.

Compound `O=C1c2c(N3CCOCC3)ccnc2CN1CCc1nc(C2CC2)cs1` [compound 518, 6-[2-(4-Cyclopropylthiazol-2-yl)ethyl]-4-morpholino-7H-pyrrolo[3,4-b]pyridin-5-one] came in with an IC50 at PDE10A (human) of less than 100 nM. In addition, the microsomal CLint at 0.5 μM in data set [1] is 100 to 220 µL/min/mg; in data set [2], less than 100 µL/min/mg.
